Experimental data from patent US12257247B2 (Monte Rosa Therapeutics AG, priority 2023, dated 2025).
Where two headings read alike, the source gives them in different places.

Target: T1, VAV1 (Homo sapiens, UniProt P15498+Q96SW2)
T1 construct: A heterozygous VAV1 C-terminal HiBiT knock-in pool was generated at Monte Rosa Therapeutics from a clonal Jurkat cell; endogenous in cells; host or cells: Jurkat clone stably expressing LgBiT, homozygous GSPT1-G575N; heterozygous VAV1-HiBiT knock-in pool
Test: VAV1 degradation activity, VAV1-HiBiT knock-in Jurkat luminescence assay (Example A, Table 1)
Type: cell-based
Conditions: VAV1-HiBiT knock-in Jurkat cells, luminescence read at 6 and 24 hours; for Dmax: Jurkat
Description: Cells were plated at 10,000 cells per well using Multiflo (BioTek) or Multi Drop Combi (Thermo Fisher) in 384-well white solid bottom plates (Corning, 3570BC) in 25 ul volume in RPMI 1640 media (Thermo Fischer, 22400105) containing 10% FBS (Corning, 35-075-CV), 1% Penicillin/Streptomycin (ThermoFisher Scientific, 15140-122), and 1% Endurazine (Nano-Glo Endurazine Live Cell Substrate (Promega, N2571)). Cells were incubated for ˜16 hours at 37° C., 5% CO2. 25 nL of a compound at 10 μM were dosed into the plate using an Echo® 650 liquid handler (Labcyte). Cells were incubated at 37° C., 5% CO2 and signal was read at 6 and 24 hours after compound addition on a Pherastar FSX using “LUM plus” optic module.
Analysis was performed in Scinamic (Scinamic, Cambridge, MA). Luminescence response (R) was calculated by the formula: response=100*(S−N)/(P−N) where S is the signal of the well, N and P the mean negative and positive control values respectively of the same plate. The luminescence response was then fitted in Scinamic using a 3-parameter agonist logistic fit (hillslope=1, EC50>0, top/bottom unconstrained).

[1] = read-out: VAV1 DC50 (nM), class

| Dmax (read-out: VAV1 Dmax %) [%] | Dmax (read-out: VAV1 Dmax %, class) [%] | DC50 (read-out: VAV1 DC50) [nM] | DC50 [1] [nM] | VAV1 Dmax % [%] | Compound |
| --- | --- | --- | --- | --- | --- |
| 90.6 | > 90 | 706 | 100 to 1000 | – | O=C1CC[C@](F)(c2cccc(-c3ccc(N4CCCCC4=O)cc3)c2Cl)C(=O)N1 (single isomer, unassigned) [Compound 367] |
| 98.5 | > 90 | 1.84 | ≤ 100 | – | O=C1CC[C@@](F)(c2cccc(-c3ccc(N4CCCCC4=O)cc3)c2Cl)C(=O)N1 (single isomer, unassigned) [Compound 368] |
| 96 | > 90 | 12.3 | ≤ 100 | – | CCc1cc(-c2cccc(C3CCC(=O)NC3=O)c2Cl)ccc1N (stereo not shown) [Compound 101] |
| 84.1 | 60 to 90 | 240 | 100 to 1000 | – | Nc1nccn1Cc1ccc(-c2cccc(C3CCC(=O)NC3=O)c2Cl)cc1 (stereo not shown) [Compound 102] |
| 93.6 | > 90 | 45.4 | ≤ 100 | – | O=C1CCC(c2cccc(-c3ccc(OCc4ccccn4)cc3)c2Cl)C(=O)N1 (stereo not shown) [Compound 103] |
| 81.7 | 60 to 90 | 59.7 | ≤ 100 | – | CN1CCN(CCOc2ccc(-c3cccc(C4CCC(=O)NC4=O)c3Cl)cc2)CC1 (stereo not shown) [Compound 104] |
| 97.7 | > 90 | 18.1 | ≤ 100 | – | Nc1ccc(-c2cccc(C3CCC(=O)NC3=O)c2Cl)cc1Cl (stereo not shown) [Compound 105] |
| 14 | < 60 | ≥ 10000 | > 1000 | – | O=C1CCC(c2cccc(-c3ccc(C4COC(=O)N4)cc3)c2Cl)C(=O)N1 (stereo not shown) [Compound 106] |
| 27 | < 60 | ≥ 10000 | > 1000 | – | O=C1CCC(c2cccc(-c3ccc(C4COC(=O)N4)c(F)c3)c2Cl)C(=O)N1 (stereo not shown) [Compound 107] |
| 47.8 | < 60 | ≥ 10000 | > 1000 | – | COc1ccc(-c2cccc(C3CCC(=O)NC3=O)c2Cl)cc1OC(F)F (stereo not shown) [Compound 108] |
| 66.4 | 60 to 90 | 678 | 100 to 1000 | – | O=C1CCC(c2cccc(-c3ccc(OC4CCOC4)cc3)c2Cl)C(=O)N1 (stereo not shown) [Compound 109] |
| 89.2 | 60 to 90 | 22.3 | ≤ 100 | – | Nc1ncn(Cc2ccc(-c3cccc(C4CCC(=O)NC4=O)c3Cl)cc2)n1 (stereo not shown) [Compound 110] |
| 87.8 | 60 to 90 | 49.2 | ≤ 100 | – | Cc1nccn1Cc1ccc(-c2cccc(C3CCC(=O)NC3=O)c2Cl)cc1 (stereo not shown) [Compound 111] |
| 78.2 | 60 to 90 | 119 | 100 to 1000 | – | N#Cc1cc(-c2cccc(C3CCC(=O)NC3=O)c2Cl)ccc1O (stereo not shown) [Compound 112] |
| 64.6 | 60 to 90 | 482 | 100 to 1000 | – | Nc1ccc(-c2cccc(C3CCC(=O)NC3=O)c2Cl)cc1OC(F)F (stereo not shown) [Compound 113] |
| 80.9 | 60 to 90 | 125 | 100 to 1000 | – | CCNc1ccc(-c2cccc(C3CCC(=O)NC3=O)c2Cl)cc1 (stereo not shown) [Compound 115] |
| 96 | > 90 | 22.3 | ≤ 100 | – | CNc1ccc(-c2cccc(C3CCC(=O)NC3=O)c2Cl)cc1C (stereo not shown) [Compound 116] |
| 72 | 60 to 90 | 353 | 100 to 1000 | – | O=C1CCC(c2cccc(-c3ccc(OCCCO)cc3)c2Cl)C(=O)N1 (stereo not shown) [Compound 117] |
| 89.7 | 60 to 90 | 39.7 | ≤ 100 | – | Nc1ccnn1Cc1ccc(-c2cccc(C3CCC(=O)NC3=O)c2Cl)cc1 (stereo not shown) [Compound 118] |
| 87.1 | 60 to 90 | 69.3 | ≤ 100 | – | O=C1CCC(c2cccc(-c3ccc(OCC4CCCO4)cc3)c2Cl)C(=O)N1 (stereo not shown) [Compound 119] |
| 94 | > 90 | 15.1 | ≤ 100 | – | O=C1CCC(c2cccc(-c3ccc(Cn4cccn4)cc3)c2Cl)C(=O)N1 (stereo not shown) [Compound 120] |
| 94 | > 90 | 11 | ≤ 100 | – | O=C1CN(CCOc2ccc(-c3cccc(C4CCC(=O)NC4=O)c3Cl)cc2)CCN1 (stereo not shown) [Compound 121] |

| Dmax (read-out: VAV1 Dmax %) [%] | Dmax (read-out: VAV1 Dmax %, class) [%] | DC50 (read-out: VAV1 DC50) [nM] | DC50 [1] [nM] | VAV1 Dmax % [%] | Compound |
| --- | --- | --- | --- | --- | --- |
| 81.3 | 60 to 90 | 48.8 | ≤ 100 | – | O=C1CCC(c2cccc(-c3ccc(CCN4CCOCC4)cc3)c2Cl)C(=O)N1 (stereo not shown) [Compound 122] |
| 96.3 | > 90 | 11.6 | ≤ 100 | – | O=C1CCC(c2cccc(-c3ccc(OCc4cccnc4)cc3)c2Cl)C(=O)N1 (stereo not shown) [Compound 123] |
| 98.8 | > 90 | 4.04 | ≤ 100 | – | O=C1CCC(c2cccc(-c3ccc(OCc4ccncc4)cc3)c2Cl)C(=O)N1 (stereo not shown) [Compound 124] |
| 75.9 | 60 to 90 | 1530 | > 1000 | – | COc1cc(-c2cccc(C3CCC(=O)NC3=O)c2Cl)ccc1C(F)F (stereo not shown) [Compound 125] |
| 91.4 | > 90 | 127 | 100 to 1000 | – | COCCCOc1ccc(-c2cccc(C3CCC(=O)NC3=O)c2Cl)cc1 (stereo not shown) [Compound 126] |
| 92.4 | > 90 | 39 | ≤ 100 | – | Cc1cc(C)n(Cc2ccc(-c3cccc(C4CCC(=O)NC4=O)c3Cl)cc2)n1 (stereo not shown) [Compound 127] |
| 81.1 | 60 to 90 | 67.4 | ≤ 100 | – | CC(=O)Nc1ccc(-c2cccc(C3CCC(=O)NC3=O)c2Cl)cc1 (stereo not shown) [Compound 128] |
| 68.2 | 60 to 90 | 240 | 100 to 1000 | – | CC(C)Nc1ccc(-c2cccc(C3CCC(=O)NC3=O)c2Cl)cc1 (stereo not shown) [Compound 129, 3-(2-chloro-4′-(isopropylamino)-[1,1′-biphenyl]-3-yl)piperidine-2,6-dione] |
| 84.6 | 60 to 90 | 37.1 | ≤ 100 | – | Nc1ccc(-c2cccc(C3CCC(=O)NC3=O)c2Cl)cc1 (stereo not shown) [Compound 130, 3-(4′-amino-2-chloro-[1,1′-biphenyl]-3-yl)piperidine-2,6-dione] |
| 94.9 | > 90 | 7.27 | ≤ 100 | – | Cc1cc(-c2cccc(C3CCC(=O)NC3=O)c2Cl)ccc1N (stereo not shown) [Compound 131] |
| 84.5 | 60 to 90 | 475 | 100 to 1000 | – | COc1cc(-c2cccc(C3CCC(=O)NC3=O)c2Cl)ccc1C (stereo not shown) [Compound 132] |
| 79 | 60 to 90 | 427 | 100 to 1000 | – | N#Cc1ccc(-c2cccc(C3CCC(=O)NC3=O)c2Cl)cc1N (stereo not shown) [Compound 133] |
| 85.7 | > 90 | 90.9 | – | 76.45 | CNc1ccc(-c2cccc(C3CCC(=O)NC3=O)c2Cl)cc1 (stereo not shown) [Compound 134, 3-(2-chloro-4′-(methylamino)-[1,1′-biphenyl]-3-yl)piperidine-2,6-dione] |
| 34.9 | < 60 | ≥ 10000 | > 1000 | – | CN(C)CCOc1ccc(-c2cccc(C3CCC(=O)NC3=O)c2Cl)cc1 (stereo not shown) [Compound 135] |
| 40.9 | < 60 | ≥ 10000 | > 1000 | – | O=C1CCC(c2cccc(-c3ccc(OCCN4CCCC4)cc3)c2Cl)C(=O)N1 (stereo not shown) [Compound 136] |
| 63.8 | 60 to 90 | 7440 | > 1000 | – | COc1cc(OC(F)F)ccc1-c1cccc(C2CCC(=O)NC2=O)c1Cl (stereo not shown) [Compound 137] |
| 84.6 | 60 to 90 | 604 | 100 to 1000 | – | Nc1cc(-c2cccc(C3CCC(=O)NC3=O)c2Cl)ccc1Cl (stereo not shown) [Compound 138] |
| 25.2 | < 60 | ≥ 10000 | > 1000 | – | COc1ccc(-c2cccc(C3CCC(=O)NC3=O)c2Cl)cc1C#N (stereo not shown) [Compound 139] |
| 83.8 | 60 to 90 | 52.2 | ≤ 100 | – | O=C1CCC(c2cccc(-c3ccc(Cn4ccnc4)cc3)c2Cl)C(=O)N1 (stereo not shown) [Compound 140, 3-(4′-((1H-imidazol-1-yl)methyl)-2-chloro-[1,1′-biphenyl]-3-yl)piperidine-2,6-dione] |
| 87.6 | 60 to 90 | 99.2 | ≤ 100 | – | O=C1CCC(c2cccc(-c3ccc(OCC4CCOC4)cc3)c2Cl)C(=O)N1 (stereo not shown) [Compound 141] |
| 69.9 | 60 to 90 | 705 | 100 to 1000 | – | N#Cc1ccc(-c2cccc(C3CCC(=O)NC3=O)c2Cl)cc1 (stereo not shown) [Compound 142] |
